Assay type in all cases: functional
One experiment deals with Cryptococcus neoformans. As to the kind of experiment: Antifungal activity against Cryptococcus neoformans ATCC 32045 after 48 hrs by broth microdilution method. The following applies: ATCC 32045, 48 h.
In another experiment the test system is Bacillus subtilis. Put plainly: Antimicrobial activity against Bacillus subtilis ATCC 6633 after 24 hrs by broth microdilution method. The following applies: ATCC 6633, 24 h.
In the next experiment the test system is Candida albicans. As to the kind of experiment: Antifungal activity against Candida albicans ATCC 44506 after 24 hrs by broth microdilution method. The following applies: ATCC 44506, 24 h.

In brackets after ≈: the same amount, converted by molar mass.

Take `O=C1NC[C@H](c2c[nH]c3cc(Br)ccc23)N=C1c1c[nH]c2cc(Br)ccc12` [HAMACANTHIN B]: the results for the minimal inhibitory concentration (MIC) with Cryptococcus neoformans, in the experiment with Bacillus subtilis and in the experiment on Candida albicans were 6.2 µg/mL (≈ 12.8 µM), 1.6 µg/mL (≈ 3.29 µM) and 6.2 µg/mL (≈ 12.8 µM), respectively.
On to `O=C1N[C@@H](c2c[nH]c3cc(Br)ccc23)CN=C1c1c[nH]c2cc(Br)ccc12` [HAMACANTHIN A], for which the MIC worked out at 3.1 µg/mL (≈ 6.38 µM) in the experiment on Cryptococcus neoformans, 3.1 µg/mL (≈ 6.38 µM) with Bacillus subtilis and 1.6 µg/mL (≈ 3.29 µM) with Candida albicans.

These data come from ChEMBL document CHEMBL1148075, “Hamacanthins A and B, new antifungal bis indole alkaloids from the deep-water marine sponge, Hamacantha sp” (1994).
